Laboratory results published in ChEMBL document CHEMBL5465560, “Selectivity Literature for EUbOPEN Chemogenomic Library” (2024).
Values belong to the compound of their own block, whether it stands above or below them.

Columns and labels:
[1] = target: Serine/threonine-protein kinase MRCK gamma (Homo sapiens) (UniProt Q6DT37); experiment: Selectivity interaction (Ambit KINOMEscan and KiNATiv profiling in Jurkat cells) EUB0000090b CDC42BPG; assay type: cell-based; details: at 1 µM
[2] = target: MAP/microtubule affinity-regulating kinase 3 (Homo sapiens) (UniProt P27448); experiment: Selectivity interaction (ActivX KiNativ screen (kinase selectivity in THP-1 cell lysates)) EUB0000639a MARK3; assay type: subcellular; details: lysate, at 1 µM
[3] = target: Protein arginine N-methyltransferase 6 (Homo sapiens, UniProt Q96LA8); details: at 10 µM
[4] = target: T1, Serine/threonine-protein kinase TBK1 (Homo sapiens) (UniProt Q9UHD2); experiment: Selectivity interaction (Kinase panel (Z-LYTE Assay)) EUB0001632a TBK1; details: at 10 µM
T1 sequence (whole entry): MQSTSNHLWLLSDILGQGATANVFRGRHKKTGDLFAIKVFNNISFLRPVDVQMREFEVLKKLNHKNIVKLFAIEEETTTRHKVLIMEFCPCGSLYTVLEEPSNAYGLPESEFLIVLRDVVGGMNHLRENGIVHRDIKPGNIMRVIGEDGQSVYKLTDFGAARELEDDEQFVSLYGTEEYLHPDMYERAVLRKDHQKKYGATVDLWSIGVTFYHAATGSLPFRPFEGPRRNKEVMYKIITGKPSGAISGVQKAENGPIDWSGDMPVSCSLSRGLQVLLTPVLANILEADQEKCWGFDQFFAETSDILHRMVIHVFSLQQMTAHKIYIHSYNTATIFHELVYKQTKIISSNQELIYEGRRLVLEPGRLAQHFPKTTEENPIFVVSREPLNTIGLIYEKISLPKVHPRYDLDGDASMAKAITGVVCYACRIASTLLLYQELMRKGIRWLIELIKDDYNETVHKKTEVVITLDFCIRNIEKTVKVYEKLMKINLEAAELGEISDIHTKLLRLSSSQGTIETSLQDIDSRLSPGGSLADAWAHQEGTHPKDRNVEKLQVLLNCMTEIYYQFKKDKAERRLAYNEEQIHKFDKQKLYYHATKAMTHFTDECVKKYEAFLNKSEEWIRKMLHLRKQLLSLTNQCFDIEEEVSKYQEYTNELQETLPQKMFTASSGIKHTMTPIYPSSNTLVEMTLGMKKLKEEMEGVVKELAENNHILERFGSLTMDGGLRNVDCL

[5] = target: T2, Serine/threonine-protein kinase D3 (Homo sapiens) (UniProt O94806); experiment: Selectivity interaction (Kinase panel (Z-LYTE Assay)) EUB0001632a PRKD3; details: at 10 µM
T2 sequence (whole entry): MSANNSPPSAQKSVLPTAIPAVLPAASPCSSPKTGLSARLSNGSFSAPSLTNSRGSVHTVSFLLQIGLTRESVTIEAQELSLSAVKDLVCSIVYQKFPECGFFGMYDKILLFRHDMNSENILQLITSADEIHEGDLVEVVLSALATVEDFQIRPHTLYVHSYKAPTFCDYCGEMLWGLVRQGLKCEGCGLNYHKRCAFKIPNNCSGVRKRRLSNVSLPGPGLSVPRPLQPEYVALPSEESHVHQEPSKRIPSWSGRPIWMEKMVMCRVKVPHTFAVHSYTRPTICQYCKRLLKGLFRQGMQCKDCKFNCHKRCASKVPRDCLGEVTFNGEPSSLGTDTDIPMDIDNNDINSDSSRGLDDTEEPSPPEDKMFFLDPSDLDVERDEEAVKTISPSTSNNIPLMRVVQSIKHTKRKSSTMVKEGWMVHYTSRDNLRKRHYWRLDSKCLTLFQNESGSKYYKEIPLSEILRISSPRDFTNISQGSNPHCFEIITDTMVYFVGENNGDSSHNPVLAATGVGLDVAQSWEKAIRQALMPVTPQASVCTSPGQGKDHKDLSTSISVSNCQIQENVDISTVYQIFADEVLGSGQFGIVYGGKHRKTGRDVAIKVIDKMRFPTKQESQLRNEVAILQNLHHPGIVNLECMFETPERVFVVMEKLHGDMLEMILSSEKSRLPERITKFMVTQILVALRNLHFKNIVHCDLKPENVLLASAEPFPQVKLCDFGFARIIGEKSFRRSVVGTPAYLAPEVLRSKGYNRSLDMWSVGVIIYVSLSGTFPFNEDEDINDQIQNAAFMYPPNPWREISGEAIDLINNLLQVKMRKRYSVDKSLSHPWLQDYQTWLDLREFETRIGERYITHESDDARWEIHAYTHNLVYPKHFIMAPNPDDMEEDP

Histamine H1 receptor = Histamine H1 receptor (Homo sapiens, UniProt P35367); experiment: Selectivity interaction (GPCR panel (PDSP screen)) EUB0001079a HRH1; details: at 10 µM
[6] = target: Wee1-like protein kinase 2 (Homo sapiens) (UniProt P0C1S8); experiment: Selectivity interaction (KinomeScan (DiscoverX)) EUB0001079a WEE2; details: at 1 µM
[7] = target: cGMP-inhibited 3',5'-cyclic phosphodiesterase 3A (Homo sapiens, UniProt Q14432); experiment: Selectivity interaction (Eurofins safety panel) EUB0001564a PDE3A; details: at 10 µM
[8] = target: BDNF/NT-3 growth factors receptor (Homo sapiens) (UniProt Q16620); experiment: Selectivity interaction (Upstate Kinase Profiler service (Millipore)) EUB0000056c NTRK2; details: at 1 µM
[9] = target: Tyrosine-protein kinase HCK (Homo sapiens) (UniProt P08631); experiment: Selectivity interaction (KinomeScan (DiscoverX)) EUB0000655a HCK; details: at 10 µM
[10] = target: Serine/threonine-protein kinase PAK 2 (Homo sapiens) (UniProt Q13177); experiment: Selectivity interaction (KinomeScan (DiscoverX)) EUB0000607a PAK2; details: at 10 µM
[11] = target: T3, Serine/threonine-protein kinase Chk1 (Homo sapiens) (UniProt O14757); experiment: Selectivity interaction (SelectScreen profiling (Invitrogen)) EUB0000607a CHEK1; details: at 2 µM
T3 sequence (whole entry): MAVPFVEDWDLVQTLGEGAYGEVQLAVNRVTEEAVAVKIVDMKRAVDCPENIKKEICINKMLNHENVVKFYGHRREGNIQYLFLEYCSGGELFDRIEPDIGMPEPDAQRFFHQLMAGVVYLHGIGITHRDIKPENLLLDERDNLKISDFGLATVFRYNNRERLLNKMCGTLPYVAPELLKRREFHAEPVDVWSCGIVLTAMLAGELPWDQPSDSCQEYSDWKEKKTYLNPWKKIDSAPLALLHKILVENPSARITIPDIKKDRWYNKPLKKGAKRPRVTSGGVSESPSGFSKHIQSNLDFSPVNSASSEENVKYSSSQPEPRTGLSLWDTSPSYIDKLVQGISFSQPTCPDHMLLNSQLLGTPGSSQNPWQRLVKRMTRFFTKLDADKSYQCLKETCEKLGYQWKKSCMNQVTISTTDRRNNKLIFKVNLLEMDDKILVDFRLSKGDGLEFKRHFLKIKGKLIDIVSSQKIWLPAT

[12] = target: Histone-lysine N-methyltransferase SETDB1 (Homo sapiens) (UniProt Q15047); experiment: Selectivity interaction (Methyltransferase screen (Scintillation proximity assays)) EUB0000255b SETDB1

cGMP-inhibited 3',5'-cyclic phosphodiesterase 3A, sequence (Q14432 whole entry): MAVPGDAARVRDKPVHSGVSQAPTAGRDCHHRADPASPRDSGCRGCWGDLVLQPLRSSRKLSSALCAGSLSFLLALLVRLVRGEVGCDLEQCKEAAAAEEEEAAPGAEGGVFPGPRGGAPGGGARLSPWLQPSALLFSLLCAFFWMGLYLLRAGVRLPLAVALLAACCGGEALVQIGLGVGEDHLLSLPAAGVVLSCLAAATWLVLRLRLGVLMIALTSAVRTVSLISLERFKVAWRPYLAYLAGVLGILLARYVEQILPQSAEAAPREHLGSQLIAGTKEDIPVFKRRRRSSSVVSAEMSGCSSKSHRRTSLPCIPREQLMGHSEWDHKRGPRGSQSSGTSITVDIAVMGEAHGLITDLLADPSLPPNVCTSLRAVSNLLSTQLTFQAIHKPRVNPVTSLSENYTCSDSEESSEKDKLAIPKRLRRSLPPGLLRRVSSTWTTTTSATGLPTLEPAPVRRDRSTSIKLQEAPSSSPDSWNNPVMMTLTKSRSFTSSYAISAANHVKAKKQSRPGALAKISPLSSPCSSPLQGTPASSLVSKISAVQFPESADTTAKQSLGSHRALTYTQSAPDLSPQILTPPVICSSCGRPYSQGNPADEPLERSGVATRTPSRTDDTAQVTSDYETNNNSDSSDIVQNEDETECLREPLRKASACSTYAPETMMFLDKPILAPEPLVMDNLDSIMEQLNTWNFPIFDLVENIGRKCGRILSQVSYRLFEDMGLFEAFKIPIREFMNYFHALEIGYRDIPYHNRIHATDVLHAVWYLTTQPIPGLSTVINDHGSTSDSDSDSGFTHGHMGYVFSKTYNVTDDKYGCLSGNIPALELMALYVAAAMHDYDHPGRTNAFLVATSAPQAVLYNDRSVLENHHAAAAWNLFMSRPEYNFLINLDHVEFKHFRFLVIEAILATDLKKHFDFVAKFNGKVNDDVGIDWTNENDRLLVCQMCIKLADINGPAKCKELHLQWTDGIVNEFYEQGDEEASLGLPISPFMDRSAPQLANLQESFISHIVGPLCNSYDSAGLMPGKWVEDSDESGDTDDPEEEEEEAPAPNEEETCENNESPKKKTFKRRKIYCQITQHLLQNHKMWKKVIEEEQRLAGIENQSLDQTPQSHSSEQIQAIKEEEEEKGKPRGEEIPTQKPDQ
Serine/threonine-protein kinase PAK 2 (Homo sapiens), sequence (Q13177 whole entry): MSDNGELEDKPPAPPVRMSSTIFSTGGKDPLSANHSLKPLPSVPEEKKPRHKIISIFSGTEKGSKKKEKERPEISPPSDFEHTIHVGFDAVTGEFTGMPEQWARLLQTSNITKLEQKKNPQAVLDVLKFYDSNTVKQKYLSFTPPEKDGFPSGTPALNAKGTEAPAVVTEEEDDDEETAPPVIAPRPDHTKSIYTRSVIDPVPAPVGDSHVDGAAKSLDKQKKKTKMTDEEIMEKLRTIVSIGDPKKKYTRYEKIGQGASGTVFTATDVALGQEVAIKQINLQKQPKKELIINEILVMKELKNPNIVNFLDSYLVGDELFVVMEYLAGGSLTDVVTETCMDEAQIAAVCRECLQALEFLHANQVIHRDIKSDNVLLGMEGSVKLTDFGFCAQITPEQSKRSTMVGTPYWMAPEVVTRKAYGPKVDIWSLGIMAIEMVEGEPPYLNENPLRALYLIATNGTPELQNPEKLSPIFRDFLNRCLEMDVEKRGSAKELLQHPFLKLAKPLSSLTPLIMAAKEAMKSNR
Tyrosine-protein kinase HCK (Homo sapiens), sequence (P08631 2-526 limits assumed): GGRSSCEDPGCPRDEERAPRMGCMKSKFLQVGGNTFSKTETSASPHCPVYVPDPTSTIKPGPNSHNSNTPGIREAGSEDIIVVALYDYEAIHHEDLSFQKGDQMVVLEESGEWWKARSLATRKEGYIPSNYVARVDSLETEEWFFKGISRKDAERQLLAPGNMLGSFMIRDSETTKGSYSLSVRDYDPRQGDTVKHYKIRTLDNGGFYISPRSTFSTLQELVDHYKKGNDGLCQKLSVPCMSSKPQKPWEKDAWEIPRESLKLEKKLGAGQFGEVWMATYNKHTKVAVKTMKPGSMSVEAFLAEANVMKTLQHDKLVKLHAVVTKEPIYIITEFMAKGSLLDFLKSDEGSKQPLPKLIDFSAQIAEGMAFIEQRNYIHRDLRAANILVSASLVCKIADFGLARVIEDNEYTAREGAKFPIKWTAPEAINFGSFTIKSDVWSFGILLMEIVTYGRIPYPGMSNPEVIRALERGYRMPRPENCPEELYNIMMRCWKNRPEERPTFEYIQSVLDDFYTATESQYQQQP
Protein arginine N-methyltransferase 6, sequence (Q96LA8 whole entry, looked up): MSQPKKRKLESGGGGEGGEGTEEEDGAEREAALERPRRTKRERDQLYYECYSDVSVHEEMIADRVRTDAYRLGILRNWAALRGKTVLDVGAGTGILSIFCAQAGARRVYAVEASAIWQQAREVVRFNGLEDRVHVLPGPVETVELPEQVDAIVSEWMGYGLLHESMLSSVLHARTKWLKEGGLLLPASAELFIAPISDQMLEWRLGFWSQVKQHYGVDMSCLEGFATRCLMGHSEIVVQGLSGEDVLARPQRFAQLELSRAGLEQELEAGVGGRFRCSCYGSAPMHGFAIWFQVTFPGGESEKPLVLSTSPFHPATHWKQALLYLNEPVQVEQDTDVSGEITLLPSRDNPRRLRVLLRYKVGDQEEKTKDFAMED
MAP/microtubule affinity-regulating kinase 3 (Homo sapiens), sequence (P27448 whole entry, looked up): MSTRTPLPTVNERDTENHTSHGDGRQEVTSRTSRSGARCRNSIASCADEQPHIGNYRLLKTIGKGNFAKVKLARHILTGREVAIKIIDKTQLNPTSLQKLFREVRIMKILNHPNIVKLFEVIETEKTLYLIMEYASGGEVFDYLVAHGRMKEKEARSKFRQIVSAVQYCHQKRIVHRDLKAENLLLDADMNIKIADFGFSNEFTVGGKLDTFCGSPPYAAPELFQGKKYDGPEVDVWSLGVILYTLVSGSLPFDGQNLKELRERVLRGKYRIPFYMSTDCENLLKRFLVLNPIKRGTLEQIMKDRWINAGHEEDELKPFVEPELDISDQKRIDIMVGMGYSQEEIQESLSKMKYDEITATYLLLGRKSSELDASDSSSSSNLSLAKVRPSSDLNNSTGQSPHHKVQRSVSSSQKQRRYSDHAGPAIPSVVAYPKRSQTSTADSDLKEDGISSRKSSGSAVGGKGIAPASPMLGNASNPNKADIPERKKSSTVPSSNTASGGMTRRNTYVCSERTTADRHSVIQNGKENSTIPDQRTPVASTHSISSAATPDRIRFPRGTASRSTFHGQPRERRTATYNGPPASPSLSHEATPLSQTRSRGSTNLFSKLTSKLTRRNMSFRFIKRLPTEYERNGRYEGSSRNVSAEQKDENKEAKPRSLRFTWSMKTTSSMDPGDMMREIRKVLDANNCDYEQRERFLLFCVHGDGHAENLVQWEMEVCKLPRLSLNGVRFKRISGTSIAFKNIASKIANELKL
BDNF/NT-3 growth factors receptor (Homo sapiens), sequence (Q16620 32-822 limits assumed): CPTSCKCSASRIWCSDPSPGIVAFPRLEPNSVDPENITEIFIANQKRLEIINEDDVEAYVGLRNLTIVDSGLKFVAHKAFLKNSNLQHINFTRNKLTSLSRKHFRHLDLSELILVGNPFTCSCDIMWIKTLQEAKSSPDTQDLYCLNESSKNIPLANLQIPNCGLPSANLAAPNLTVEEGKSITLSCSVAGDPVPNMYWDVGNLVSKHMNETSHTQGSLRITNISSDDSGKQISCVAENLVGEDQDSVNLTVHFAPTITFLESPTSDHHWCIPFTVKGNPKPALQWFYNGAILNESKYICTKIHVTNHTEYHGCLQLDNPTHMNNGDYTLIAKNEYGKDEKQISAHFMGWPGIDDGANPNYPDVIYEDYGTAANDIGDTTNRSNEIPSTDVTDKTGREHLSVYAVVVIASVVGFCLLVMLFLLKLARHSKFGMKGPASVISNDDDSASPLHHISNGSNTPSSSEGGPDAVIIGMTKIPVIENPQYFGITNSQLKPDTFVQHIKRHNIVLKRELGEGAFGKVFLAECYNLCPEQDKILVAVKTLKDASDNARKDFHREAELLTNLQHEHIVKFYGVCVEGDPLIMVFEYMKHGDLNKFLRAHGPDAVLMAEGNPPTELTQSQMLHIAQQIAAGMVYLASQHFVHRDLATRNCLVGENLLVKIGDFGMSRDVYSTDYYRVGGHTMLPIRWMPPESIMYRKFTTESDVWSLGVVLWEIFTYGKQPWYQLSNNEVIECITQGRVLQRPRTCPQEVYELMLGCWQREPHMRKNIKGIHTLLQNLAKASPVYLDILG
Wee1-like protein kinase 2 (Homo sapiens), sequence (P0C1S8 whole entry, looked up): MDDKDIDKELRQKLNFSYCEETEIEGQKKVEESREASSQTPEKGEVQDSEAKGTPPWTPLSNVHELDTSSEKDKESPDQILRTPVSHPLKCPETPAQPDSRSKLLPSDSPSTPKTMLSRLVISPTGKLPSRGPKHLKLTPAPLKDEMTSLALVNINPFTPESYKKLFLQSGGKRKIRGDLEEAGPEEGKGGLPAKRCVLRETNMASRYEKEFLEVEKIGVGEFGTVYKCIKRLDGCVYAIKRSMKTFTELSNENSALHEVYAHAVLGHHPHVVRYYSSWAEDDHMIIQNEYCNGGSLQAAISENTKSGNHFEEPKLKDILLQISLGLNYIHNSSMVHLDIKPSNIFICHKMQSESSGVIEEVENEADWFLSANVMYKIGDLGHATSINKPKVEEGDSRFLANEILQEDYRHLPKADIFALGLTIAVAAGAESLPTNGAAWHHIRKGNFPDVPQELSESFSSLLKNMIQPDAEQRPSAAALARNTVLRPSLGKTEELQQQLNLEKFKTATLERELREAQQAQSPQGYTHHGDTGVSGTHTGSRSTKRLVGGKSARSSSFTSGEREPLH

SMILES: CN(C)C/C=C/C(=O)Nc1ccc(C(=O)N2CCCC(Nc3ncc(Cl)c(-c4c[nH]c5ccccc45)n3)C2)cc1 (centres undefined)
% of control [1]: 90%

% of inhibition [2]: 4.3%
SMILES: CC[C@@H]1[C@H](F)C(=O)N[C@@H]1COc1nccc2cc(C(N)=O)c(OC)cc12 [ZIMLOVISERTIB]

% activity [3]: 42%
SMILES: CNCCN1CCC(c2cc(CN(C)C(=O)c3cccc(Oc4ccccc4)c3)ccn2)CC1

% of control [4]: -4.28% | % of control [5]: 1.79%
SMILES: Cn1cc(-n2cnc3c(NCc4nc5cc(Cl)c(Cl)cc5[nH]4)nc(N4CCOCC4)nc32)cn1

SMILES: Nc1cnc(N2CCc3cc(S(=O)(=O)Nc4c(F)cc(Cl)cc4F)cc(N4CCCC4=O)c32)nc1 [TP-020n]
% of inhibition (Histamine H1 receptor): -2.69% | % of control [6]: 93%

SMILES: CC[C@@H](Nc1c(C#N)c(-c2ccc(-c3cccc(C)c3F)cc2)nc2cnccc12)C(=O)O [BAY-091]
% of inhibition [7]: 74%

% of inhibition [8]: -8%
SMILES: Cc1ccc(-c2ccc3c(ccc4sc5c(c43)NC[C@@H](C)NC5=O)n2)cn1

SMILES: CN(C)CCOc1ccc(-c2nc(-c3ccncc3)c(-c3ccc4c(c3)CC/C4=N\O)[nH]2)cc1
% of control [9]: 84%

SMILES: CNC(=O)Nc1ccc(-c2nc(N3CC4CCC(C3)O4)c3cnn(C4CCC5(CC4)OCCO5)c3n2)cc1
% of control [10]: 99% | % of inhibition [11]: 9%

SMILES: COCCN1CCC(c2cc(CN(C)C(=O)c3cccc(Oc4ccccc4)c3)ccn2)CC1
% activity ([12]; at 1 µM): > 95% | % activity ([12]; at 10 µM): > 90%
